“Also recorded” adds a separate entry of the source.
Assays:
serotonin 5HT1A receptor = tested on: serotonin 5HT1A receptor; parameters: method as in PMID 17574977; details: inhibitor of CYP2E1; cited from earlier work
rhCYP1A2 = biological target: T1, rhCYP1A2 (Homo sapiens, UniProt P05177); experiment: Incubation with recombinantly expressed CYP1A2; assay type: in vitro ADME
T1 construct: purchased BD Gentest (Woburn, MA, USA); host or cells: Baculovirus transfected insect cell system
T1 sequence (P05177 1-516): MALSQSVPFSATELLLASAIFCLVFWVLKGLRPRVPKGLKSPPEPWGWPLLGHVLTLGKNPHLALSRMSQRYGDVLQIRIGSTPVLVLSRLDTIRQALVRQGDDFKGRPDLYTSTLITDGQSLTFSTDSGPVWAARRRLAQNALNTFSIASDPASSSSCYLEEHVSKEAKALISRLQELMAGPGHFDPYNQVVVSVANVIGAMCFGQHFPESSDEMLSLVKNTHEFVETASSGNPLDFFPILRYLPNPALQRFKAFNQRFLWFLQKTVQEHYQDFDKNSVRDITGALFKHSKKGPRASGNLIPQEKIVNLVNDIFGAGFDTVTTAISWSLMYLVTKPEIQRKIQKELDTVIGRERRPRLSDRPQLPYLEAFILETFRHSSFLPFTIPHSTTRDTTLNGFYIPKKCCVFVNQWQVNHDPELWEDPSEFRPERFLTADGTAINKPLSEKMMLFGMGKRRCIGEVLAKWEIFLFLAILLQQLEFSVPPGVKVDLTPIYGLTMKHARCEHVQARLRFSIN
Procedure: (§1) After a 10 min preincubation at 37°C, the reaction was initiated by addition of 2.0 mM NADPH and incubated for 15 and 60 min. The reactions were terminated by the addition of two volumes of DMSO. Samples were subsequently centrifuged at 4,000 rpm for 10 min. From the resulting supernatant, 10 μL was analysed by liquid chromatography/tandem mass spectrometry (LC-MS/MS). […] Quantification was performed on a TSQ-Vantage instrument (Thermofisher Scientific, Bremen, Germany), fitted with an electrospray ionization source. […] Elution was performed on a Waters XBridge C18 column (3 × 2.1 mm, 2.5 μm; Waters, Boston MA, USA). Solvents A (0.1% formic acid in water) and B (0.1% formic acid in acetonitrile) were used at a flow rate of 500 μL/min. […] The final ratio was held for a further 0.6 min and then reduced again to 5% B over 0.05 min. Data was processed using QuickQuan (Thermofisher Scientific, Bremen, Germany).

rhCYP 2C9 = biological target: T2, rhCYP 2C9 (Homo sapiens, UniProt P11712); experiment: Incubation with recombinantly expressed CYP2C9; assay type: in vitro ADME
T2 construct: purchased BD Gentest (Woburn, MA, USA); host or cells: Baculovirus transfected insect cell system
Procedure: as §1

rhCYP 2C19 = biological target: T3, rhCYP 2C19 (Homo sapiens, UniProt P33261); experiment: Incubation with recombinantly expressed CYP2C19; assay type: in vitro ADME
T3 construct: purchased BD Gentest (Woburn, MA, USA); host or cells: Baculovirus transfected insect cell system
Procedure: as §1

rhCYP 2D6 = biological target: T4, rhCYP 2D6 (Homo sapiens, UniProt P10635); experiment: Incubation with recombinantly expressed CYP2D6; assay type: in vitro ADME
T4 construct: purchased BD Gentest (Woburn, MA, USA); host or cells: Baculovirus transfected insect cell system
Procedure: as §1

rhCYP 3A4 = biological target: T5, rhCYP 3A4 (Homo sapiens, UniProt P08684); experiment: Incubation with recombinantly expressed CYP3A4; assay type: in vitro ADME
T5 construct: purchased BD Gentest (Woburn, MA, USA); host or cells: Baculovirus transfected insect cell system
Procedure: as §1

[1] = Human liver microsomal metabolism (no inhibitor); assay type: in vitro ADME; details: HLM incubations from phenotyping experiments, qualitative LC/MS
Procedure: (§2) After a 10 min preincubation at 37°C, the reaction was initiated by addition of 0.15 mM NADP and further incubated for either 15 or 60 min. The reactions were terminated by the addition of two volumes DMSO. Samples were subsequently centrifuged at 4,000 rpm for 10 min. From the resulting supernatant, 10 μL was analyzed by LC-MS/MS.
(§3) Quantification was performed on a TSQ-Vantage instrument (Thermofisher Scientific, Bremen, Germany), fitted with an electrospray ionization source. […] Elution was performed on a Waters XBridge C18 column (3 × 2.1 mm, 2.5 μm; Waters, Boston MA, USA). Solvents A (0.1% formic acid in water) and B (0.1% formic acid in acetonitrile) were used at a flow rate of 500 μL/min. […] The final ratio was held for a further 0.6 min and then reduced again to 5% B over 0.05 min. Data was processed using QuickQuan (Thermofisher Scientific, Bremen, Germany).
Qualitative high resolution LC/MS data was acquired on a Waters Premier hybrid quadrupole time-of-flight (QToF) mass spectrometer (Waters, Boston MA, USA) equipped with a liquid chromatography system, using a 10 min gradient method and an Acquity UPLC BEH C18 (2.1 × 100 mm, 1.7 μm) column (Waters, Boston MA). The QToF Premier operated with a cone voltage of 30 eV and collision energy of 30 eV. […] The final ratio was held for 2 min and then reduced again to 5% B over 1 min. […]

[2] = Human liver microsomal metabolism in the presence of cytochrome P450 diagnostic inhibitors; assay type: in vitro ADME; details: PiB 1.0 μM, 60 min
Procedure: as §2, §3
Qualitative high resolution LC/MS data was acquired on a Waters Premier hybrid quadrupole time-of-flight (QToF) mass spectrometer (Waters, Boston MA, USA) equipped with a liquid chromatography system, using a 10 min gradient method and an Acquity UPLC BEH C18 (2.1 × 100 mm, 1.7 μm) column (Waters, Boston MA). The QToF Premier operated with a cone voltage of 30 eV and collision energy of 30 eV. […] The final ratio was held for 2 min and then reduced again to 5% B over 1 min. Interpretation of data was performed with Metabolynx software (Waters, Boston, MA, USA).

[3] = tested on: rhCYPs 1A2, 2C9, 2C19, 2D6, and 3A4; experiment: Metabolite profiling of rhCYP incubations; assay type: in vitro ADME, human; details: qualitative LC/MS
Procedure: After a 10 min preincubation at 37°C, the reaction was initiated by addition of 2.0 mM NADPH and incubated for 15 and 60 min. The reactions were terminated by the addition of two volumes of DMSO. Samples were subsequently centrifuged at 4,000 rpm for 10 min. From the resulting supernatant, 10 μL was analysed by liquid chromatography/tandem mass spectrometry (LC-MS/MS). Control experiments were performed by substituting the active enzyme preparation by insect cell preparations containing no rhCYP.
Qualitative high resolution LC/MS data was acquired on a Waters Premier hybrid quadrupole time-of-flight (QToF) mass spectrometer (Waters, Boston MA, USA) equipped with a liquid chromatography system, using a 10 min gradient method and an Acquity UPLC BEH C18 (2.1 × 100 mm, 1.7 μm) column (Waters, Boston MA). The QToF Premier operated with a cone voltage of 30 eV and collision energy of 30 eV. The gradient employed was 95% solvent A (25 mM ammonium acetate, pH = 9) as the start condition followed by a linear ramp of organic phase concentration from 5% B (25 mM ammonium acetate/MeOH/acetonitrile 10/10/80) to 95% B over 6.5 min. The final ratio was held for 2 min and then reduced again to 5% B over 1 min. Interpretation of data was performed with Metabolynx software (Waters, Boston, MA, USA).

[4] = PiB 1.0 μM, rhCYP 100 pmol/mL, 15 and 60 min
[5] = scaled for approximate relative abundances of CYP isoforms in human liver [10]

T5 sequence (P08684 whole entry): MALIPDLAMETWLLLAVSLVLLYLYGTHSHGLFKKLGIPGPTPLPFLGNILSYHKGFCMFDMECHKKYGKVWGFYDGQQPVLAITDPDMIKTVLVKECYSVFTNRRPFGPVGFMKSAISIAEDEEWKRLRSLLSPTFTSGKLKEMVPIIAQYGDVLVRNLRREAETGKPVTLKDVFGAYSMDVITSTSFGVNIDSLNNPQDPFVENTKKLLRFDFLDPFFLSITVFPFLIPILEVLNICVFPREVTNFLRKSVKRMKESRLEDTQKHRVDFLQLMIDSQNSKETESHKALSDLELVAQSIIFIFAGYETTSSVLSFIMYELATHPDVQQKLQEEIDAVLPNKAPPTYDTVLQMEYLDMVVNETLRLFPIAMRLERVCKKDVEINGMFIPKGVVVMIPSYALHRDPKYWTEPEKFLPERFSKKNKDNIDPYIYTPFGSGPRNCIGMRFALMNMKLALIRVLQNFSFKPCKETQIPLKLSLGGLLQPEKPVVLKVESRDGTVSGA
T3 sequence (P33261 whole entry): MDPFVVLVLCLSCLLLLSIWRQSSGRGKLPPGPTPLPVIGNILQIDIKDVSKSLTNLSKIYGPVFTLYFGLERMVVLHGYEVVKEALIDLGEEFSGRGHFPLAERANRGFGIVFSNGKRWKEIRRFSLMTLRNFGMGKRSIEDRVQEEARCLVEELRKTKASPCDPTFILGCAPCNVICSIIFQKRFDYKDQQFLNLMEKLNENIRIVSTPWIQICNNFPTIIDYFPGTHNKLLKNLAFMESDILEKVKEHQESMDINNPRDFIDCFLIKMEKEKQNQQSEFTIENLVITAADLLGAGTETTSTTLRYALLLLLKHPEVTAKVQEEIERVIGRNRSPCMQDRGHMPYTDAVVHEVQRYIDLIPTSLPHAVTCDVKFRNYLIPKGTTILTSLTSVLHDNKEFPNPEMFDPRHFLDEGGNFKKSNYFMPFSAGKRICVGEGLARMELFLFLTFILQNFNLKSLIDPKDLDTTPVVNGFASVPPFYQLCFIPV
T2 sequence (P11712 whole entry): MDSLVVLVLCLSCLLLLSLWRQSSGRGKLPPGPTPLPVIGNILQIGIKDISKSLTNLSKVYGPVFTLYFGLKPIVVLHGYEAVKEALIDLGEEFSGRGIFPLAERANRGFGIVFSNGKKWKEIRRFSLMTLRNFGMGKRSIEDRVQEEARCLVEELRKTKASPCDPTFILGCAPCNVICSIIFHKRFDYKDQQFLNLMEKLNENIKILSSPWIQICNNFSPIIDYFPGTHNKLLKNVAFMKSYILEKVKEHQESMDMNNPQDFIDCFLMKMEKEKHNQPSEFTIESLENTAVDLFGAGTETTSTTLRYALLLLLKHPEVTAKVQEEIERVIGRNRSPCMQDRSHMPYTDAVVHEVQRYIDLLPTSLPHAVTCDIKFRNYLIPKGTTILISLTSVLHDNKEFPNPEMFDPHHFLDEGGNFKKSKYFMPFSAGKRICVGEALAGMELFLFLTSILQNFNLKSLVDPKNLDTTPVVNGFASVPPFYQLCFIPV
T4 sequence (P10635 whole entry): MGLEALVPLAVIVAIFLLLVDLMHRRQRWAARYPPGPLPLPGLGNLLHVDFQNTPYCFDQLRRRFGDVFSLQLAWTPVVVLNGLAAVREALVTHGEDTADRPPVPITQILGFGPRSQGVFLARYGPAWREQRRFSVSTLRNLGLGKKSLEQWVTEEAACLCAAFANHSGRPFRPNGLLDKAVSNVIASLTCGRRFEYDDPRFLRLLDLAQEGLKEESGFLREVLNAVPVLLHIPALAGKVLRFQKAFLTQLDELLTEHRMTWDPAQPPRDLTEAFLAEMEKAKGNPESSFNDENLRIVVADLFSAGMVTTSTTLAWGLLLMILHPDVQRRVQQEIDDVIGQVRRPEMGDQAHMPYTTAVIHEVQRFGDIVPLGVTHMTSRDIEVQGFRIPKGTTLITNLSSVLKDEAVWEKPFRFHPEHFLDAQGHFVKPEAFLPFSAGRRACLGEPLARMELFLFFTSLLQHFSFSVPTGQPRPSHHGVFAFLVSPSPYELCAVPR

| SMILES | metabolism after pretreatment with disulfuram (serotonin 5HT1A receptor) | observed turnover with rhCYP1A2 (rhCYP1A2; [4]) | contribution of CYP1A2 to metabolism after scaling (rhCYP1A2; [5]) | observed turnover with rhCYP2C9 (rhCYP 2C9; [4]) | contribution of CYP2C9 to metabolism after scaling (rhCYP 2C9; [5]) | observed turnover with rhCYP2C19 (rhCYP 2C19; [4]) | contribution of CYP2C19 to metabolism after scaling (rhCYP 2C19; [5]) | observed turnover with rhCYP2D6 (rhCYP 2D6; [4]) | contribution of CYP2D6 to metabolism after scaling (rhCYP 2D6; [5]) | observed turnover with rhCYP3A4 (rhCYP 3A4; [4]) | contribution of CYP3A4 to metabolism after scaling (rhCYP 3A4; [5]) | drug-related species detected in HLM [1] | change in HLM turnover with inhibitor of CYP1A2 ([2]; alpha-naphthoflavone 3 μM) | change in HLM turnover with inhibitor of CYP2C19 ([2]; benzylphenobarbital 1 μM) | change in HLM turnover with inhibitor of CYP3A4 ([2]; ketoconazole 1 μM) | change in HLM turnover with inhibitor of CYP2D6 ([2]; quinidine 3 μM) | change in HLM turnover with inhibitor of CYP2C9 ([2]; sulfaphenazole 10 μM) | drug-related species observed in rhCYP incubations [3] |
| --- | --- | --- | --- | --- | --- | --- | --- | --- | --- | --- | --- | --- | --- | --- | --- | --- | --- | --- |
| COc1ccccc1N1CCN(CCN(C(=O)C2CCC(F)CC2)c2ccccn2)CC1 (stereo not drawn) [FCWAY] | significantly reduced |  |  |  |  |  |  |  |  |  |  |  |  |  |  |  |  |  |
| CNc1ccc(-c2nc3ccc(O)cc3s2)cc1 [PiB] |  | substrate; also recorded: high turnover | primarily metabolized | substrate | primarily metabolized | substrate | only minor contributions | substrate | only minor contributions | substrate; also recorded: high turnover | primarily metabolized | desmethyl metabolite | significant reduction | reduction in turnover is also apparent | significant reduction | reduction in turnover is also apparent | reduction in turnover is also apparent | desmethyl metabolite |
